From article PMC7044277 (Nature Communications, 2020)
Several values for one entry are separate records, joined by “and”; a condition that tells them apart may be missing. Identical values can stand only once.

Assays:
[1] = system: serotonin receptor (subtype not given; reference agonist serotonin); assay: β-arrestin2 recruitment (Tango), agonist activity, source data Fig_S10l; format: cell-based, human; conditions: drug alone
5HT4 = target: T1, 5HT4 (Homo sapiens, UniProt Q13639); assay: β-arrestin2 recruitment (Tango); format: cell-based; conditions: Fig_S10n; for β-arrestin2 recruitment response in presence of serotonin (replicate values): +10μM serotonin; for β-arrestin2 recruitment response (dose-response source data, replicate values): drug alone
T1 construct: expressed in transfected cells; host or cells: HTLA cells expressing TEV-fused β-arrestin2
T1 sequence (Q13639 whole entry, the tested form may be a part): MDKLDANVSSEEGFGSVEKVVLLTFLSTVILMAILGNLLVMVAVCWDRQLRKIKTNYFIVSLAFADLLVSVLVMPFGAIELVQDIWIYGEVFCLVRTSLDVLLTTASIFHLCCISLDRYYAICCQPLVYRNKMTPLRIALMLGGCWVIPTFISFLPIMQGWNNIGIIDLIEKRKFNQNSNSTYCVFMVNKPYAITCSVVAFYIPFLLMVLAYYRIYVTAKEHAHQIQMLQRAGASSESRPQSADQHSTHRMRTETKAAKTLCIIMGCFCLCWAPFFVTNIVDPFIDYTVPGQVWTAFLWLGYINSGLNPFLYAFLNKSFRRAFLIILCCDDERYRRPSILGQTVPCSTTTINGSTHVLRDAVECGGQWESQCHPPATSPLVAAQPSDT

DRD3 wild-type = DRD3 wild-type (Homo sapiens, UniProt P35462); assay: Radioligand competition binding, [3H]-N-methylspiperone; conditions: DRD3; [3H]-methylspiperone (0.8-1.0 nM); read-out: Ki
Chain of DRD3 wild-type (P35462 whole entry): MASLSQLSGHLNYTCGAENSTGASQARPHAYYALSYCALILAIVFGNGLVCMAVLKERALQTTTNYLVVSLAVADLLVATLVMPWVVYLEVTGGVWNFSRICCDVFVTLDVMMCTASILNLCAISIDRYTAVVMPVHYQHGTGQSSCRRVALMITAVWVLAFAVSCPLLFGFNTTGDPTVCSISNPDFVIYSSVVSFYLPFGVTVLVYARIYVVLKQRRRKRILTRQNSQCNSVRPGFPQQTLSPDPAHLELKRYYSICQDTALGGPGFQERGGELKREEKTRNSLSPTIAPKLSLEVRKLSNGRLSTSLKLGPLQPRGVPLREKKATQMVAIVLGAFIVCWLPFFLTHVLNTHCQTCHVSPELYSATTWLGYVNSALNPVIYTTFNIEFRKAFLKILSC

320 non-olfactory GPCRs = format: cell-based; conditions: compound at 1 μM
DRD3 = DRD3 (Homo sapiens, UniProt P35462); assay: β-arrestin2 recruitment (Tango); format: cell-based; conditions: for response, concentration-response data point (replicates): Fig_S10b, drug alone
Chain of DRD3 (P35462 whole entry): as above

With `CCOc1cccc2cc([C@H](C)NCC3(O)CCCCC3)oc12` [O4SE6] the “response, Fig_S10l, replicate values” ([1]; Log[Drug] -6.52) was -2.091, the “response, Fig_S10l, replicate values” ([1]; Log[Drug] -7) was -4.051 and -1.4228 and 2.693 and -6.163 and -1.5474 and -1.737 and -7.607 and -30.8777 and -6.976 and the “response, Fig_S10l, replicate values” ([1]; Log[Drug] -7.52) was -6.555 and -13.4609 and -0.98 and 4.322 and -3.875 and -2.693 and -7.055 and 7.925 and -34.7877. For the same molecule, the “response, Fig_S10l, replicate values” ([1]; Log[Drug] -8) was -3.792 and 35.132 and 2.507 and -11.1986 and -6.626 and 6.545 and -5.91 and -30.1494 and -3.473, the “response, Fig_S10l, replicate values” ([1]; Log[Drug] -8.52) was 1.522 and -11.8615 and -2.437 and 12.7169 and -12.0506 and -8.665 and 20.957 and -2.778 and -10.1926 and the “response, Fig_S10l, replicate values” ([1]; Log[Drug] -9) was -4.295 and 4.13 and 0.2396 and -2.794 and 1.184 and 0.6235 and -1.336 and -7.8842 and -10.8253. For the same molecule, the “response, Fig_S10l, replicate values” ([1]; Log[Drug] -9.52) was 25.6854 and -2.744 and -6.32 and -4.5985 and -1.891 and 4.517 and 39.1804 and -4.421 and -3.844, the “response, Fig_S10l, replicate values” ([1]; Log[Drug] -10) was -8.462 and 9.478 and -1.609 and 0.3049 and 15.9901 and -6.166 and 19.6932 and 12.6773 and 5.951 and the “response, Fig_S10l, replicate values” ([1]; Log[Drug] -10.52) was 6.737 and -12.3624 and -4.665 and -4.851 and -5.052 and -4.841 and 9.484 and 11.2587 and 10.4562. The “response, Fig_S10l, replicate values” ([1]; Log[Drug] -11) was -35.1417 and -18.9513 and -15.3749 and 4.5184 and -0.5498 and 5.57 and -9.125 and -8.22 and 4.834, the “response, Fig_S10l, replicate values” ([1]; Log[Drug] -11.52) was -5.783 and 6.132 and 4.745 and -13.0691 and -5.46 and 4.358 and -4.571 and 10.1317 and -13.0711 and the “response, Fig_S10l, replicate values” ([1]; Log[Drug] -12) was 6.173 and -15.2273 and 9.6789 and 4.873 and 7.863 and 1.749 and -9.697 and 0.6459 and 4.404. The “β-arrestin2 recruitment response in presence of serotonin (replicate values)” value (5HT4; Log[Drug] -6.52) was 72.8962, the “β-arrestin2 recruitment response (dose-response source data, replicate values)” value (5HT4; Log[Drug] -6.52) was 1.101 and the “β-arrestin2 recruitment response in presence of serotonin (replicate values)” value (5HT4; Log[Drug] -7) was 68.214 and 69.7519 and 58.0435 and 78.1719 and 67.5552 and 58.9312 and 58.5479 and 62.6911 and 62.3338. The “β-arrestin2 recruitment response (dose-response source data, replicate values)” value (5HT4; Log[Drug] -7) was 0.5278 and 0.7799 and 0.9481 and 2.146 and 2.021 and 0.7677 and -0.1447 and -0.08084 and 0.1108, the “β-arrestin2 recruitment response in presence of serotonin (replicate values)” value (5HT4; Log[Drug] -7.52) was 78.4713 and 70.1922 and 60.1136 and 64.4542 and 62.425 and 65.749 and 65.0234 and 67.6362 and 68.0461 and the “β-arrestin2 recruitment response (dose-response source data, replicate values)” value (5HT4; Log[Drug] -7.52) was 1.098 and 0.2279 and 1.538 and 2.02 and 1.183 and 1.483 and -0.2732 and 0.4713 and 0.304. The “β-arrestin2 recruitment response in presence of serotonin (replicate values)” value (5HT4; Log[Drug] -8) was 79.2214 and 70.638 and 63.1387 and 67.7854 and 68.476 and 59.8854 and 62.949 and 70.8028 and 62.3669, the “β-arrestin2 recruitment response (dose-response source data, replicate values)” value (5HT4; Log[Drug] -8) was 1.665 and 0.2788 and 1.143 and 1.476 and 0.7729 and 1.19 and -0.1116 and -0.1148 and 0.2053 and the “β-arrestin2 recruitment response in presence of serotonin (replicate values)” value (5HT4; Log[Drug] -8.52) was 63.0325 and 66.617 and 68.5815 and 61.4979 and 62.8385 and 69.3531 and 69.1189 and 65.2821 and 54.9164. For the same molecule, the “β-arrestin2 recruitment response (dose-response source data, replicate values)” value (5HT4; Log[Drug] -8.52) was 2.264 and 0.3266 and 1.143 (2×) and 0.899 and 0.9417 and -0.211 and 0.2724 and 0.6928, the “β-arrestin2 recruitment response in presence of serotonin (replicate values)” value (5HT4; Log[Drug] -9) was 58.3354 and 69.9419 and 59.2835 and 65.9 and 67.9417 and 62.0583 and 73.9242 and 95.122 and 58.9489 and the “β-arrestin2 recruitment response (dose-response source data, replicate values)” value (5HT4; Log[Drug] -9) was 0.7979 and 0.203 and 1.266 and 0.9417 and 1.353 and 2.815 and 0.5659 and 0.7244 and 0.2029. The “β-arrestin2 recruitment response in presence of serotonin (replicate values)” value (5HT4; Log[Drug] -9.52) was 62.0248 and 69.3453 and 57.8541 and 56.9479 and 71.0625 and 61.8156 and 76.4214 and 67.9653 and 74.0649, the “β-arrestin2 recruitment response (dose-response source data, replicate values)” value (5HT4; Log[Drug] -9.52) was 0.3303 and 1.247 and 2.286 and 1.442 and 0.7292 and 1.103 and 0.01536 and 0.2716 and 0.5247 and the “β-arrestin2 recruitment response in presence of serotonin (replicate values)” value (5HT4; Log[Drug] -10) was 55.5618 and 63.9322 and 63.2088 and 69.7104 and 76.0792 and 67.2 and 78.0601 and 69.8546 and 82.4903. The “β-arrestin2 recruitment response (dose-response source data, replicate values)” value (5HT4; Log[Drug] -10) was 0.4781 and 0.7712 and 1.0661 and 1.899 and 1.272 and 1.189 and -0.1148 and 0.1124 and 0.5271, the “β-arrestin2 recruitment response in presence of serotonin (replicate values)” value (5HT4; Log[Drug] -10.52) was 62.9859 and 78.1652 and 74.7819 and 66.7635 and 61.4146 and 52.4937 and 74.1336 and 65.8957 and 89.463 and the “β-arrestin2 recruitment response (dose-response source data, replicate values)” value (5HT4; Log[Drug] -10.52) was 1.621 and 1.692 and 0.9661 and 0.6417 and 1.106 and 1.144 and 0.4066 and -0.08327 and 0.2078. For the same molecule, the “β-arrestin2 recruitment response in presence of serotonin (replicate values)” value (5HT4; Log[Drug] -11) was 82.0434 and 83.1157 and 82.0887 and 77.05 and 73.7271 and 49.1812 and 80.7368 and 81.7578 and 70.7931, the “β-arrestin2 recruitment response (dose-response source data, replicate values)” value (5HT4; Log[Drug] -11) was 0.3285 and 0.5731 and 1.621 and 1.898 and 1.603 and 0.8979 and -0.2789 and 0.3428 and 0.1099 and the “β-arrestin2 recruitment response in presence of serotonin (replicate values)” value (5HT4; Log[Drug] -11.52) was 82.4482 and 79.2239 and 74.7068 and 70.1292 and 64.8323 and 73.1583 and 68.2329 and 84.5356 and 79.3843. For the same molecule, the “β-arrestin2 recruitment response (dose-response source data, replicate values)” value (5HT4; Log[Drug] -11.52) was 0.3061 and 0.7799 and 0.4241 and 1.31 and 1.564 and 0.9802 and 0.3743 and -0.1811 and 0.5651, the “β-arrestin2 recruitment response in presence of serotonin (replicate values)” value (5HT4; Log[Drug] -12) was 88.7057 and 105.09 and 99.6448 and 69.9375 and 73.7219 and 66.8948 and 92.7613 and 90.5301 and 90.978 and the “β-arrestin2 recruitment response (dose-response source data, replicate values)” value (5HT4; Log[Drug] -12) was 1.557 and 0.8835 and 0.5619 and 0.6979 and 1.198 and 1.239 and 0.08246 and 0.08488 and 0.4382. For the same molecule, the Ki (DRD3 wild-type) was 810 nM, the “agonism across 320 nonolfactory GPCRs” value (320 non-olfactory GPCRs) was “only DRD2 activity was observed” and the “β-arrestin2 recruitment agonist activity” value (DRD3; DRD3, Tango) was “no detectable agonist activity”. For the same molecule, the EC50 (DRD3; DRD3, Tango, read-out: EC50 ± SEM) was greater than 10000 nM, the “response, concentration-response data point (replicates)” value (from here on “response … (replicates)”) (DRD3; Log[Drug] -11) was 0.5878 and 2.511 and 1.194 and 2.15 and 1.1907 and 4.631 and -3.875 and 11.6724 and 8.605 and the “response … (replicates)” value (DRD3; Log[Drug] -11.52) was -0.276 and 0.7993 and -0.05881 and 1.198 and 0.07895 and 5.103 and 9.785 and 5.488 and 1.269. The “response … (replicates)” value (DRD3; Log[Drug] -12) was 1.3136 and 1.529 and -0.0652 and 0.03793 and 0.02727 and 3.808 and -3.9762 and 0.1686 and 1.294, the “β-arrestin2 recruitment response at DRD3 (source data, replicate values)” value (from here on “β-arrestin2 recruitment response at DRD3”) (DRD3; Log[Drug] -6) was 12.3452 and the “β-arrestin2 recruitment response at DRD3” value (DRD3; Log[Drug] -6.52) was 8.082 and 5.965 and 11.0149 and 19.9759 and 10.9551 and 9.221 and 9.014 and 7.197 and 16.9834. For the same molecule, the “β-arrestin2 recruitment response at DRD3” value (DRD3; Log[Drug] -7) was 8.647 and 6.889 and 5.419 and 8.207 and 5.755 and 6.315 and 4.579 and 5.095 and 7.56, the “β-arrestin2 recruitment response at DRD3” value (DRD3; Log[Drug] -7.52) was 4.34 and 0.6022 and 1.762 and 2.508 and 1.167 and 1.071 and 1.816 and 2.855 and 3.052 and the “β-arrestin2 recruitment response at DRD3” value (DRD3; Log[Drug] -8) was 0.7316 and 0.3304 and 1.058 and 0.6729 and 0.7789 and 1.51 and 1.953 and 1.946 and 0.2868. For the same molecule, the “β-arrestin2 recruitment response at DRD3” value (DRD3; Log[Drug] -8.52) was 1.063 and 0.9542 and 0.434 and 0.6781 and 0.1637 and 0.2619 and 0.09244 and 0.8182 and 0.08985 and the “β-arrestin2 recruitment response at DRD3” value (DRD3; Log[Drug] -9) was -0.1872 and 1.166 and 0.6488 and 0.05773 and 0.4739 and 2.133 and -0.01123 and 0.2998 and -0.1097.
